Results from the NIST ThermoML archive (doi:10.1021/je060257y).
Numbers after ± are expanded uncertainties.

Experiment: molar heat capacity at constant pressure
Conditions: 101.33 kPa, Crystal

Row | SMILES | molar heat capacity at constant pressure (298.15 K) [J/K/mol] | molar heat capacity at constant pressure (303.15 K) [J/K/mol] | molar heat capacity at constant pressure (308.15 K) [J/K/mol] | molar heat capacity at constant pressure (313.15 K) [J/K/mol] | molar heat capacity at constant pressure (318.15 K) [J/K/mol] | molar heat capacity at constant pressure (323.15 K) [J/K/mol] | molar heat capacity at constant pressure (328.15 K) [J/K/mol] | molar heat capacity at constant pressure (333.15 K) [J/K/mol] | molar heat capacity at constant pressure (338.15 K) [J/K/mol] | molar heat capacity at constant pressure (343.15 K) [J/K/mol]
1 | O=[N+]([O-])c1cnc(O)nc1O [2,4-pyrimidinedione, 5-nitro-] | 167.2 ± 5.2 | 167.9 ± 5.2 | 169.9 ± 5.3 | 169.9 ± 5.3 | 171.1 ± 5.3 | 171.8 ± 5.3 | 173 ± 5.4 | 173.1 ± 5.4 | 174.5 ± 5.4 | 174.5 ± 5.4
2 | Cc1cc(=O)n(C)c(=O)[nH]1 [3,6-dimethyluracil] | 187.4 ± 5.9 | 193.1 ± 6 | 191.4 ± 6 | 193.5 ± 6.1 | 198.4 ± 6.2 | 200.3 ± 6.2 | 202.4 ± 6.3 | 203.8 ± 6.3 | 206 ± 6.4 | 209 ± 6.5
3 | O=c1[nH]cc(C(F)(F)F)c(=O)[nH]1 [5-(trifluoromethyl)uracil] | 182.2 ± 5.6 | 183.9 ± 5.7 | 188.1 ± 5.8 | 190.3 ± 5.9 | 192.2 ± 6 | 195.9 ± 6.1 | 198.2 ± 6.1 | 199.4 ± 6.2 | 204.4 ± 6.3 | 206.6 ± 6.4
4 | O=c1[nH]cc(Br)c(=O)[nH]1 [5-bromouracil] | 144.7 ± 4.5 | 147.9 ± 4.6 | 148.5 ± 4.6 | 151 ± 4.7 | 153.9 ± 4.8 | 157.1 ± 4.9 | 157.9 ± 4.9 | 162 ± 5 | 164.3 ± 5.1 | 164.8 ± 5.1
5 | Oc1ncc(Cl)c(O)n1 [5-chloro-2,4-pyrimidinedione] | 136.7 ± 4.2 | 137.9 ± 4.3 | 142.1 ± 4.4 | 142.9 ± 4.4 | 146.1 ± 4.5 | 147.2 ± 4.6 | 151.2 ± 4.7 | 152.9 ± 4.7 | 154.9 ± 4.8 | 157 ± 4.9

Results, then the compound that gave them:

Row | molar heat capacity at constant pressure (298.15 K) [J/K/mol] | molar heat capacity at constant pressure (303.15 K) [J/K/mol] | molar heat capacity at constant pressure (308.15 K) [J/K/mol] | molar heat capacity at constant pressure (313.15 K) [J/K/mol] | molar heat capacity at constant pressure (318.15 K) [J/K/mol] | molar heat capacity at constant pressure (323.15 K) [J/K/mol] | molar heat capacity at constant pressure (328.15 K) [J/K/mol] | molar heat capacity at constant pressure (333.15 K) [J/K/mol] | molar heat capacity at constant pressure (338.15 K) [J/K/mol] | molar heat capacity at constant pressure (343.15 K) [J/K/mol] | SMILES
6 | 138.3 ± 4.7 | 139.1 ± 4.7 | 140 ± 4.7 | 140.9 ± 4.8 | 142 ± 4.8 | 143.6 ± 4.8 | 145.5 ± 4.9 | 147.9 ± 4.9 | 150.6 ± 5 | 153.8 ± 5.1 | O=c1[nH]cc(F)c(=O)[nH]1 [5-fluoro-2,4(1H,3H)-pyrimidinedione]
7 | 150.9 ± 4.7 | 153.9 ± 4.8 | 156.8 ± 4.9 | 159.8 ± 5 | 162.8 ± 5 | 165.8 ± 5.1 | 168.6 ± 5.2 | 170.3 ± 5.3 | 172.7 ± 5.4 | 177.5 ± 5.5 | O=c1[nH]cc(I)c(=O)[nH]1 [5-iodouracil]
8 | 139.4 ± 4.3 | 141 ± 4.4 | 141.2 ± 4.4 | 140.8 ± 4.4 | 141.3 ± 4.4 | 144.7 ± 4.5 | 144.9 ± 4.5 | 145.1 ± 4.5 | 146 ± 4.5 | 147.9 ± 4.6 | O=c1cc(Cl)[nH]c(=O)[nH]1 [6-chlorouracil]
9 | 163 ± 5.3 | 168.2 ± 5.4 | 173.7 ± 5.6 | 178.7 ± 5.7 | 184.3 ± 5.8 | 189.9 ± 6 | 195.2 ± 6.1 | 200 ± 6.2 | 203.5 ± 6.3 | 205.9 ± 6.4 | Cc1c[nH]c(=O)[nH]c1=O [thymine]
10 | 157 ± 5 | 168.8 ± 5.3 | 181.2 ± 5.7 | 193 ± 6 | 206.1 ± 6.4 | 214.3 ± 6.6 | 226.1 ± 7 | 239.2 ± 7.4 | 249 ± 7.7 | 260.2 ± 8.1 | Cn1c(=O)cc[nH]c1=O [uracil, 3-methyl-]
